Consider four compounds from US20160081985A1, “CENICRIVIROC COMPOSITIONS AND METHODS OF MAKING AND USING THE SAME” (Tobira Therapeutics, Inc., priority 2013, published 2016).

Data set [1] is described as follows: Disintegration behavior of tablets in approximately 250 mL water. Type of data set: physicochemical. The following applies: single tablet in approximately 250 mL water.
Data set [2] is described as follows: Dissolution time of acid solubilizers in purified water (FBRM). Type of data set: physicochemical. Particulars: 200 mg acid in 90 mL purified water, 250 rpm. As for the experimental part: The results described in Table 1 were performed by adding 200 mg of the acid to 90 mL purified water using a Mettler Toledo mixing chamber held at the specified temperature with an upward pumping four blade impeller at 250 rpm. The disappearance of particles undergoing dissolution was monitored by focused-beam reflectance measurement (FBRM). Data was analyzed by reviewing individual 2 second measurement trends as well as trends averaged over 10 and 30 seconds.

Data set [3] can be described thus: Steady-state vs single dose exposure in various other clinical trials. In kind it is in vivo, human. The following applies: different formulations.
For data set [4] the following is noted: humans; efavirenz as inducer of CYP3A4; cited from earlier work.

Regarding `Nc1ccn([C@@H]2CS[C@H](CO)O2)c(=O)n1` [lamivudine], in data set [1], the “Disintegration Observations (mode)” value is on record as “Rapid” and the Disintegration time entry is recorded as “tion <30 seconds”.
Consider `O=C(O)/C=C\C(=O)O` [Maleic, Maleic Acid], for which the values for the Dissolution time in data set [2] (25° C.) and in data set [2] (37° C.) were 4 s and less than 2 s, respectively.
`CCCCOCCOc1ccc(-c2ccc3c(c2)/C=C(/C(=O)Nc2ccc([S@@+]([O-])Cc4cncn4CCC)cc2)CCCN3CC(C)C)cc1` [cenicriviroc, (S,E)-8-(4-(2-Butoxyethoxy)phenyl)-1-(2-methylpropyl)-N-(4-(((1-propyl-1H-imidazol-5-yl)methyl)sulfinyl)phenyl)-1,2,3,4-tetrahydrobenzo[b]azocine-5-carboxamide]: the “Steady-state exposure level (AUC, day 10) relative to single dose exposure” value in data set [3] was “approximately 1.5 fold”. Further, the “Decrease of cenicriviroc plasma concentration by efavirenz” value in data set [4] is recorded as “approximately 2 fold”.
With `O=C(O)/C=C/C(=O)O` [Fumaric, Fumaric Acid], the results for the Dissolution time in data set [2] (25° C.) and in data set [2] (37° C.) were 312 s and 152 s, respectively.
